The record followed here is patent publication EP3466419B1, “USE OF TRIMETHOXYBENZYL ACETYLSINAPATE, ADVANTAGEOUSLY IN COMBINATION WITH AT LEAST ONE SUNSCREEN, FOR PROTECTING THE SKIN” (Thorel, Jean-Noël, priority 2017, dated 2019).

For the test, the system named is Nrf2. Description: Induction of the Nrf2 pathway, luciferase reporter assay in the « ARE Reporter-HepG2 » cell model. Type of test: cell-based. Particulars: 18 hours of contact, relative to solvent control cells. On the procedure: Le but de l'étude est d'évaluer l'induction de la voie Nrf2 dans le modèle cellulaire « ARE Reporter-HepG2 » (HepG2; BPS BIOSCIENCE) [Lee et al., (2004), Dinkova-Kostova et al., (2002)] par l'actif visé dans l'invention.
En parallèle du test de cytotoxicité, des cellules HepG2 ont été également ensemencées dans des puits de plaques à 96 puits (plaques opaques avec fond transparent) à raison de 40 000 cellules/puits (volume de 100 µL), en milieu M1.
Seuls les 60 puits centraux des plaques ont été utilisés, les puits restants n'ont reçu que du PBS.
Après adhésion des cellules, le milieu de culture M1 a été enlevé. Les cellules ont été traitées (volume final: 50 µL) avec le produit à l'essai, dilué dans le milieu de culture M1 (n=3/concentration à tester, 1 concentration/produit), pendant 18 heures. […]
Les puits « sans cellules » ont servi à la détection de la luminescence liée au bruit de fond du milieu. Les puits « cellules témoins » ont servi à la détection de la luminescence intrinsèque du système d'essais (sans activation). […]
A la fin de la période d'incubation (18 heures à 37°C, 5 % de CO2), les cellules ont été lysées par ajout de 100 µL du réactif « One-step luciferase assay system ». La luminescence émise par la luciférase néo-synthétisée a été évaluée avec un luminomètre Optima. […]
In general terms: In a reporter assay the amount or activity of a reporter protein is the signal.

`C[S+]([O-])CCCCN=C=S` (centres unmarked) [sulforaphane]: where the note is “Homo sapiens, HepG2, 3 µM, read-out: luminescence émise par les cellules HepG2 traitées, en comparaison au témoin solvant (activation de Nrf2)”, the activity at 3 µM worked out at 438%.

Regarding `COc1cc(COC(=O)/C=C/c2cc(OC)c(OC(C)=O)c(OC)c2)cc(OC)c1OC` [trimethoxybenzyl acetylsinapate, 3-[4-(acetyloxy)-3,5-dimethoxyphenyl] -(3,4,5-trimethoxyphenyl)methyl ester-(2E)-Propenoic acid], the activity at 0.00125 % (dose 0,00125 %, read-out: taux d'activation de Nrf2) stood at 164%.
